Target: T1, Human AhR (Homo sapiens, UniProt P35869)
T1 construct: host or cells: U87 glioblastoma cells, stably transfected with a DRE firefly luciferase reporter and a constitutive renilla reporter
T1 sequence (P35869 11-848): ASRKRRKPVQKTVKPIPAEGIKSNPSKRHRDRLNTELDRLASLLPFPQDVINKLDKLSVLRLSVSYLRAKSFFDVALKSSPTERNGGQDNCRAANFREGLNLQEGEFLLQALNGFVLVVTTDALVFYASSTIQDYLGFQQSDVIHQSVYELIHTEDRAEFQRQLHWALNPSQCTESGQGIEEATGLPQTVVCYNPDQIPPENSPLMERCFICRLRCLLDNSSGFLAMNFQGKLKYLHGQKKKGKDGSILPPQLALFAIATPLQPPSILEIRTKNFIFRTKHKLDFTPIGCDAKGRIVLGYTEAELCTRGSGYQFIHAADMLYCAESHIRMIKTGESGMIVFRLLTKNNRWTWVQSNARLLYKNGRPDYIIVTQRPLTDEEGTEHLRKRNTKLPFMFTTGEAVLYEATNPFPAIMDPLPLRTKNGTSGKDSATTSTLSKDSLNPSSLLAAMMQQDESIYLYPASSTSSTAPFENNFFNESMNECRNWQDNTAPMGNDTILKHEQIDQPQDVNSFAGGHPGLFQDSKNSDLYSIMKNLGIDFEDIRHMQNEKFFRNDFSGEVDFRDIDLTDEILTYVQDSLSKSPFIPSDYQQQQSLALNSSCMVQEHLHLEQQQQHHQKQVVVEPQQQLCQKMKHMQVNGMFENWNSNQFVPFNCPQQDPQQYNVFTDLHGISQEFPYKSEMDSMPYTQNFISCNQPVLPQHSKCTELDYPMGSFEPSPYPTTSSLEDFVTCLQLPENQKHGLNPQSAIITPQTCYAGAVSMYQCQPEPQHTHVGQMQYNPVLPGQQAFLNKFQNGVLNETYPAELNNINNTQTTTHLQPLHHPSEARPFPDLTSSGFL
Assay: Transactivation assay in human cell line (in vitro assay 1): antagonism
Format: cell-based
Conditions: U87 glioblastoma cells, AHR inducible firefly luciferase reporter (DRE), 150 μM kynurenic acid, 20 hours
Experimental: Examples were tested in selected biological assays one or more times. When tested more than once, data are reported as either average values or as median values, wherein • the average value, also referred to as the arithmetic mean value, represents the sum of the values obtained divided by the number of times tested, and • the median value represents the middle number of the group of values when ranked in ascending or descending order. If the number of values in the data set is odd, the median is the middle value. If the number of values in the data set is even, the median is the arithmetic mean of the two middle values.
Transactivation Assay in Human Cell Line (In Vitro Assay 1)
Transactivation assay was carried out in U87 glioblastoma cells (ATCC) endogenously expressing AHR. In addition the cells were stably transfected with an AHR inducible firefly luciferase reporter gene construct that carried AHR-binding sites (DRE) in its promoter and a renilla reporter gene construct with constitutively active promoter. Kynurenic acid is an endogenous AHR activating ligand and was used to prestimulate test cells prior to testing the antagonistic properties of compounds.
In Vitro Assay 1: Antagonism in Human Cell Line
Firefly luciferase and Renilla activity was determined by the DualGlo Luciferase Assay System (Promega, #2920). Renilla activity was used to assess toxic effects of compounds.

IC50 [nM] | Compound
> 20000 | CC(C)(O)CNC(=O)c1cc(-c2ccc(Cl)cc2)nc(-c2cccc(F)c2)n1 [Example 1, 6-(4-Chlorophenyl)-2-(3-fluorophenyl)-N-(2-hydroxy-2-methylpropyl)pyrimidine-4-carboxamide]
26 | CC(C)(O)CNC(=O)c1cc(-c2ccc(OC(F)(F)F)cc2)nc(-c2ccc(F)cc2)n1 [Example 13, 2-(4-fluorophenyl)-N-(2-hydroxy-2-methylpropyl)-6-[4-(trifluoromethoxy)phenyl]pyrimidine-4-carboxamide]
> 20000 | CC(C)(O)CNC(=O)c1cc(-c2ccc(OC(F)(F)F)cc2)nc(-c2ccc(C(F)F)cc2)n1 [Example 25, 2-[4-(difluoromethyl)phenyl]-N-(2-hydroxy-2-methylpropyl)-6-[4-(trifluoromethoxy)phenyl]pyrimidine-4-carboxamide]
40.2 | CC(C)(O)CNC(=O)c1cc(-c2ccc(OC(F)(F)F)cc2)nc(-c2cc(F)cc(C#N)c2)n1 [Example 26, 2-(3-cyano-5-fluorophenyl)-N-(2-hydroxy-2-methylpropyl)-6-[4-(trifluoromethoxy)phenyl]pyrimidine-4-carboxamide]
730 | COc1ccc(-c2nc(C(=O)N[C@@H](C)CO)cc(-c3ccc(OC(F)(F)F)cc3)n2)cc1 [Example 30, N-[(2S)-1-hydroxypropan-2-yl]-2-(4-methoxyphenyl)-6-[4-(trifluoromethoxy)phenyl]pyrimidine-4-carboxamide]
170 | C[C@@H](CO)NC(=O)c1cc(-c2ccc(OC(F)(F)F)cc2)nc(-c2cc(Cl)cc(Cl)c2)n1 [Example 34, 2-(3,5-dichlorophenyl)-N-[(2S)-1-hydroxypropan-2-yl]-6-[4-(trifluoromethoxy)phenyl]pyrimidine-4-carboxamide]
78.3 | C[C@@H](CO)NC(=O)c1cc(-c2ccc(OC(F)(F)F)cc2)nc(-c2ccc(F)c(C#N)c2)n1 [Example 35, 2-(3-cyano-4-fluorophenyl)-N-[(2S)-1-hydroxypropan-2-yl]-6-[4-(trifluoromethoxy)phenyl]pyrimidine-4-carboxamide]
4350 | C[C@@H](CO)NC(=O)c1cc(-c2ccc(OC(F)(F)F)cc2)nc(-c2ccc(Cl)c(Cl)c2)n1 [Example 38, 2-(3,4-dichlorophenyl)-N-[(2S)-1-hydroxypropan-2-yl]-6-[4-(trifluoromethoxy)phenyl]pyrimidine-4-carboxamide]
21.5 | C[C@@H](CO)NC(=O)c1cc(-c2ccc(OC(F)(F)F)cc2)nc(-c2cc(F)cc(C#N)c2)n1 [Example 43, 2-(3-cyano-5-fluorophenyl)-N-[(2S)-1-hydroxypropan-2-yl]-6-[4-(trifluoromethoxy)phenyl]pyrimidine-4-carboxamide]
> 20000 | CC(C)(O)CNC(=O)c1cc(-c2ccc(Cl)cc2)nc(-c2ccc(Br)cc2)n1 [Example 44, 2-(4-bromophenyl)-6-(4-chlorophenyl)-N-(2-hydroxy-2-methylpropyl)pyrimidine-4-carboxamide]
9790 | CC(C)(O)CNC(=O)c1cc(-c2ccc(Cl)cc2)nc(-c2ccc(Cl)cc2)n1 [Example 46, 2,6-bis(4-chlorophenyl)-N-(2-hydroxy-2-methylpropyl)pyrimidine-4-carboxamide]
2220 | COc1ccc(-c2nc(C(=O)NCC(C)(C)O)cc(-c3ccc(Cl)cc3)n2)cc1 [Example 47, 6-(4-chlorophenyl)-N-(2-hydroxy-2-methylpropyl)-2-(4-methoxyphenyl)pyrimidine-4-carboxamide]
112 | CC(C)(O)CNC(=O)c1cc(-c2ccc(Cl)cc2)nc(-c2ccc(F)c(C#N)c2)n1 [Example 52, 6-(4-chlorophenyl)-2-(3-cyano-4-fluorophenyl)-N-(2-hydroxy-2-methylpropyl)pyrimidine-4-carboxamide]
77.6 | CC(C)(O)CNC(=O)c1cc(-c2ccc(Cl)cc2)nc(-c2cc(F)cc(C(F)(F)F)c2)n1 [Example 58, 6-(4-chlorophenyl)-2-[3-fluoro-5-(trifluoromethyl)phenyl]-N-(2-hydroxy-2-methylpropyl)pyrimidine-4-carboxamide]
57.8 | CC(C)(O)CNC(=O)c1cc(-c2ccc(Cl)cc2)nc(-c2cc(F)cc(C#N)c2)n1 [Example 62, 6-(4-chlorophenyl)-2-(3-cyano-5-fluorophenyl)-N-(2-hydroxy-2-methylpropyl)pyrimidine-4-carboxamide]
101 | C[C@@H](CO)NC(=O)c1cc(-c2ccc(Cl)cc2)nc(-c2cc(Cl)cc(Cl)c2)n1 [Example 67, 6-(4-chlorophenyl)-2-(3,5-dichlorophenyl)-N-[(2S)-1-hydroxypropan-2-yl]pyrimidine-4-carboxamide]
102 | C[C@@H](CO)NC(=O)c1cc(-c2ccc(Cl)cc2)nc(-c2ccc(F)c(C#N)c2)n1 [Example 68, 6-(4-chlorophenyl)-2-(3-cyano-4-fluorophenyl)-N-[(2S)-1-hydroxypropan-2-yl]pyrimidine-4-carboxamide]
361 | C[C@@H](CO)NC(=O)c1cc(-c2ccc(Cl)cc2)nc(-c2ccc(Cl)c(Cl)c2)n1 [Example 72, 6-(4-chlorophenyl)-2-(3,4-dichlorophenyl)-N-[(2S)-1-hydroxypropan-2-yl]pyrimidine-4-carboxamide]
9720 | C[C@@H](CO)NC(=O)c1cc(-c2ccc(Cl)cc2)nc(-c2ccc(OC(F)(F)F)cc2)n1 [Example 73, 6-(4-chlorophenyl)-N-[(2S)-1-hydroxypropan-2-yl]-2-[4-(trifluoromethoxy)phenyl]pyrimidine-4-carboxamide]
97.8 | C[C@@H](CO)NC(=O)c1cc(-c2ccc(Cl)cc2)nc(-c2cc(F)cc(C(F)(F)F)c2)n1 [Example 75, 6-(4-chlorophenyl)-2-[3-fluoro-5-(trifluoromethyl)phenyl]-N-[(2S)-1-hydroxypropan-2-yl]pyrimidine-4-carboxamide]
26.4 | Cc1cc(F)cc(-c2nc(C(=O)N[C@@H](C)CO)cc(-c3ccc(Cl)cc3)n2)c1 [Example 77, 6-(4-chlorophenyl)-2-(3-fluoro-5-methylphenyl)-N-[(2S)-1-hydroxypropan-2-yl]pyrimidine-4-carboxamide]
> 20000 | CC(O)C(NC(=O)c1cc(-c2ccc(OC(F)(F)F)cc2)nc(-c2cccc(F)c2)n1)C(F)(F)F (stereo not shown) [Example 91, 2-(3-fluorophenyl)-N-(1,1,1-trifluoro-3-hydroxybutan-2-yl)-6-[4-(trifluoromethoxy)phenyl]pyrimidine-4-carboxamide]

Source: patent US11524944B2, “2-phenylpyrimidine-4-carboxamides as AHR inhibitors” (Bayer Aktiengesellschaft, priority 2017, dated 2022)
